Several values for one entry are separate records, joined by “and”; a condition that tells them apart may be missing. Equal values may be shown once.
Test system: HT-29-transplanted tumor
Assay: Biodistribution of [^111In]ITDA1 in HT-29 cancer-bearing mouse
Type: in vivo
Conditions: for Accumulation of radioactivity: Blood / Accumulation of radioactivity: Brain / Accumulation of radioactivity: Heart / Accumulation of radioactivity: Intestines / Accumulation of radioactivity: Kidney / Accumulation of radioactivity: Liver / Accumulation of radioactivity: Lungs / Accumulation of radioactivity: Muscle / Accumulation of radioactivity: Pancreas / Accumulation of radioactivity: Spleen / Accumulation of radioactivity: Stomach / Accumulation of radioactivity: Tumor (HT-29) / Tumor/blood / Tumor/muscle: HT-29 mouse
Experimental: HT-29 cells (5×10^6 cells/mouse) were subcutaneously inoculated into the left shoulder of each of 5-week old male BALB/c nude mice (purchased from Shimizu Laboratory Supplies Co., Ltd., the same applies to the following Examples). A saline solution (100 μL) in which [^111In]ITDA1 (37 kBq) had been dissolved was administered to each of the HT-29 cancer-bearing mice (n=5) via the tail vein. The mice were slaughtered after the lapse of 1, 4, 8, and 24 hours from the administration, and the blood, spleen, pancreas, stomach, intestines, kidney, liver, heart, lungs, brain, HT-29-transplanted tumor, and muscle were recovered. The weight of each organ was measured, and the amount of radioactivity in each organ was measured by using a gamma counter. The accumulation of radioactivity in each organ was expressed by % ID (injected dose)/g obtained by dividing the ratio of the amount of radioactivity of each organ to the administered amount of radioactivity by the organ weight.

In the case of `NS(=O)(=O)c1nn2cc(-c3ccc(NC(=O)CN4CCN(CC(=O)O)CCN(CC(=O)O)CCN(CC(=O)O)CC4)cc3)nc2s1.[111In+3]` [[^111In]ITDA1, [^111In]indium(III)2,2′,2″-(10-(2-oxo-2-((4-(2-sulfamoylimidazo[2,1-b][1,3,4]thiadiazol-6-yl)phenyl)amino)ethyl)-1,4,7,10-tetraazacyclododecan-1,4,7-triyl) triacetic acid], the “Accumulation of radioactivity: Blood” value (1 h after administration) is reported as 0.27 ± 0.03 % ID/tissue weight (g), the “Accumulation of radioactivity: Brain” value (1 h after administration) is reported as 0.30 ± 0.02 % ID/tissue weight (g) and the “Accumulation of radioactivity: Heart” value (1 h after administration) is reported as 7.58 ± 1.20 % ID/tissue weight (g). For the same molecule, the “Accumulation of radioactivity: Intestines” value (“Accumulation … Intestines” below) (1 h after administration) was 10.86 ± 1.27 % ID/tissue weight (g), the “Accumulation of radioactivity: Kidney” value (1 h after administration) was 111.20 ± 12.39 % ID/tissue weight (g) and the “Accumulation of radioactivity: Liver” value (1 h after administration) was 3.59 ± 0.98 % ID/tissue weight (g). The “Accumulation of radioactivity: Lungs” value (1 h after administration) was 13.49 ± 5.52 % ID/tissue weight (g), the “Accumulation of radioactivity: Muscle” value (1 h after administration) was 5.44 ± 1.59 % ID/tissue weight (g) and the “Accumulation of radioactivity: Pancreas” value (1 h after administration) was 31.32 ± 5.29 % ID/tissue weight (g). For the same molecule, the “Accumulation of radioactivity: Spleen” value (1 h after administration) was 0.33 ± 0.10 % ID/tissue weight (g), the “Accumulation of radioactivity: Stomach” value (1 h after administration) was 2.59 ± 0.69 % ID and the “Accumulation of radioactivity: Tumor (HT-29)” value (“Accumulation … (HT-29)” below) (1 h after administration) was 3.81 ± 0.79 % ID/tissue weight (g). For the same molecule, the Tumor/blood (1 h after administration) was 14.41 ± 3.35, the Tumor/muscle (1 h after administration) was 0.74 ± 0.25 and the “Accumulation of radioactivity: Blood” value (4 h after administration) was 0.25 ± 0.18 % ID/tissue weight (g). The “Accumulation of radioactivity: Brain” value (4 h after administration) was 0.35 ± 0.05 % ID/tissue weight (g), the “Accumulation of radioactivity: Heart” value (4 h after administration) was 3.49 ± 0.74 % ID/tissue weight (g) and the “Accumulation … Intestines” value (4 h after administration) was 14.20 ± 1.28 % ID/tissue weight (g). For the same molecule, the “Accumulation of radioactivity: Kidney” value (4 h after administration) was 115.12 ± 8.70 % ID/tissue weight (g), the “Accumulation of radioactivity: Liver” value (4 h after administration) was 3.86 ± 0.92 % ID/tissue weight (g) and the “Accumulation of radioactivity: Lungs” value (4 h after administration) was 5.09 ± 1.69 % ID/tissue weight (g). For the same molecule, the “Accumulation of radioactivity: Muscle” value (4 h after administration) was 2.69 ± 0.76 % ID/tissue weight (g), the “Accumulation of radioactivity: Pancreas” value (4 h after administration) was 18.81 ± 2.04 % ID/tissue weight (g) and the “Accumulation of radioactivity: Spleen” value (4 h after administration) was 0.31 ± 0.12 % ID/tissue weight (g). For the same molecule, the “Accumulation of radioactivity: Stomach” value (4 h after administration) was 5.22 ± 0.79 % ID, the “Accumulation … (HT-29)” value (4 h after administration) was 4.20 ± 0.68 % ID/tissue weight (g) and the Tumor/blood (4 h after administration) was 21.70 ± 8.65. For the same molecule, the Tumor/muscle (4 h after administration) was 1.62 ± 0.33, the “Accumulation of radioactivity: Blood” value (8 h after administration) was 0.18 ± 0.02 % ID/tissue weight (g) and the “Accumulation of radioactivity: Brain” value (8 h after administration) was 0.41 ± 0.05 % ID/tissue weight (g). The “Accumulation of radioactivity: Heart” value (8 h after administration) was 2.16 ± 0.31 % ID/tissue weight (g), the “Accumulation … Intestines” value (8 h after administration) was 14.99 ± 1.27 % ID/tissue weight (g) and the “Accumulation of radioactivity: Kidney” value (8 h after administration) was 83.81 ± 7.88 % ID/tissue weight (g). For the same molecule, the “Accumulation of radioactivity: Liver” value (8 h after administration) was 3.15 ± 0.78 % ID/tissue weight (g), the “Accumulation of radioactivity: Lungs” value (8 h after administration) was 3.54 ± 1.19 % ID/tissue weight (g) and the “Accumulation of radioactivity: Muscle” value (8 h after administration) was 1.75 ± 0.37 % ID/tissue weight (g). The “Accumulation of radioactivity: Pancreas” value (8 h after administration) was 9.80 ± 2.34 % ID/tissue weight (g), the “Accumulation of radioactivity: Spleen” value (8 h after administration) was 0.21 ± 0.05 % ID/tissue weight (g) and the “Accumulation of radioactivity: Stomach” value (8 h after administration) was 6.09 ± 0.82 % ID. The “Accumulation … (HT-29)” value (8 h after administration) was 5.16 ± 0.62 % ID/tissue weight (g), the Tumor/blood (8 h after administration) was 29.14 ± 5.15 and the Tumor/muscle (8 h after administration) was 3.03 ± 0.66. The “Accumulation of radioactivity: Blood” value (24 h after administration) was 0.16 ± 0.02 % ID/tissue weight (g), the “Accumulation of radioactivity: Brain” value (24 h after administration) was 0.48 ± 0.03 % ID/tissue weight (g) and the “Accumulation of radioactivity: Heart” value (24 h after administration) was 1.56 ± 0.30 % ID/tissue weight (g). For the same molecule, the “Accumulation … Intestines” value (24 h after administration) was 17.99 ± 1.59 % ID/tissue weight (g), the “Accumulation of radioactivity: Kidney” value (24 h after administration) was 65.13 ± 7.13 % ID/tissue weight (g) and the “Accumulation of radioactivity: Liver” value (24 h after administration) was 2.21 ± 0.34 % ID/tissue weight (g). For the same molecule, the “Accumulation of radioactivity: Lungs” value (24 h after administration) was 2.06 ± 0.66 % ID/tissue weight (g), the “Accumulation of radioactivity: Muscle” value (24 h after administration) was 1.43 ± 0.53 % ID/tissue weight (g) and the “Accumulation of radioactivity: Pancreas” value (24 h after administration) was 8.13 ± 0.91 % ID/tissue weight (g). For the same molecule, the “Accumulation of radioactivity: Spleen” value (24 h after administration) was 0.42 ± 0.18 % ID/tissue weight (g), the “Accumulation of radioactivity: Stomach” value (24 h after administration) was 8.74 ± 0.46 % ID and the “Accumulation … (HT-29)” value (24 h after administration) was 8.71 ± 1.41 % ID/tissue weight (g). The Tumor/blood (24 h after administration) was 53.56 and 53.56 ± 5.53, the Tumor/muscle (24 h after administration) was 6.59 and 6.59 ± 2.18 and the “Accumulation in the HT-29-transplanted tumor” value (one hour after administration) was 3.81 % ID/g.

Source: patent publication US20210322582A1, “RADIOACTIVE IMIDAZOTHIADIAZOLE DERIVATIVE COMPOUND” (Nihon Medi-Physics Co., Ltd., priority 2018, published 2021)
